Results: US20040101840A1, “Identification, cloning and characterization of a novel pc-1 gene differentially expressed in prostate cells and tissues” (priority 2003, published 2004)

Key:
Format in all cases: cell-based, human
[1] = system: PC-1 gene expression in LNCaP and C4-2 cells; experiment: Antiandrogen blockade of androgen-induced PC-1 gene expression in prostate cancer cell lines
Procedure: Parental LNCaP and its derivative cell lines, C4, C4-2, and C4-2B, were described previously. ARCaP cells, a highly invasive prostate cancer cell line, were generated by our lab from the ascites fluid of a person with Al and aggressive human prostate cancer. […]. To test the effect of androgen in affecting PC-1 gene expression in prostate cancer cell lines, cells were exposed to a synthetic androgen methyltrioenolone (R1881) at a concentration of 0.1, 1, and 10 nM. […] The culture was allowed to continue for two days and total cellular RNA was isolated and subjected to RT-PCR and Northern blot analysis for the expression of PC-1 gene. […]
(§1) First strain cDNA was synthesized from 1 μg of total RNA with a hexamer random primer obtained from Perkin-Elmer using a MMLV reverse transcriptase obtained from Life Technologies, Inc. (Grand Island, N.Y.) according to the manufacturer's instructions. cDNAs obtained were subjected to Taq DNA polymerase PCR reaction under the condition of 94° for 1 minute, 60° for 1 minute, 72° for 45 seconds, or 94° for 1 minute, 53° for 1 minute, and 72° for 1 minute for 30 cycles, and an extension of 72° for 10 minutes. […] The PCR. products were evaluated on a 1% agarose gel and confirmed by Southern blot analysis. […]

[2] = system: D52/N8 gene expression in LNCaP and C4-2 cells; experiment: Androgen regulation of D52/N8 gene expression in prostate cancer cell lines
Procedure: Parental LNCaP and its derivative cell lines, C4, C4-2, and C4-2B, were described previously. ARCaP cells, a highly invasive prostate cancer cell line, were generated by our lab from the ascites fluid of a person with Al and aggressive human prostate cancer. […]. To test the effect of androgen in affecting PC-1 gene expression in prostate cancer cell lines, cells were exposed to a synthetic androgen methyltrioenolone (R1881) at a concentration of 0.1, 1, and 10 nM. To assess the specificity of androgen induction of PC-1 gene expression, some of the cells exposed to 10 nM of R1881 were also treated with an antiandrogen Casodex, 10 μM. […]
as §1

[3] = system: PC-1 gene expression in C4-2 cells; experiment: Androgen regulation of PC-1 gene expression in C4-2 cells (RT-PCR and Northern blot); details: two days exposure
Procedure: (§2) Parental LNCaP and its derivative cell lines, C4, C4-2, and C4-2B, were described previously. ARCaP cells, a highly invasive prostate cancer cell line, were generated by our lab from the ascites fluid of a person with Al and aggressive human prostate cancer. All other cell lines were obtained from ATCC and were cultured in TB containing 5% FBS, as described previously. To test the effect of androgen in affecting PC-1 gene expression in prostate cancer cell lines, cells were exposed to a synthetic androgen methyltrioenolone (R1881) at a concentration of 0.1, 1, and 10 nM. To assess the specificity of androgen induction of PC-1 gene expression, some of the cells exposed to 10 nM of R1881 were also treated with an antiandrogen Casodex, 10 μM. […]
as §1

[4] = system: PC-1 gene expression in LNCaP cells; experiment: Androgen regulation of PC-1 gene expression in LNCaP cells (RT-PCR and Northern blot); details: two days exposure
Procedure: as §2, §1

SMILES	effect on R1881-increased expression of the PC-1 gene ([1]; coadministration with R1881, Casodex (10 nM) as printed in FIG. 5 legend)	effect on androgen-induced PC-1 gene expression ([1]; coadministration with androgen, LNCaP and C4-2)	inhibition of D52/N8 expression ([2]; coadministration of R1881 and Casodex)	concentration at which steady-state levels of PC-1 gene expression are increased [3]	concentration required to increase PC-1 gene expression [4]	regulation of D52/N8 expression by androgen ([2]; R1881 alone)
CC(O)(CS(=O)(=O)c1ccc(F)cc1)C(=O)Nc1ccc(C#N)c(C(F)(F)F)c1 (stereo not drawn) [Casodex]	blocked	effectively terminated	nor was its expression inhibited			
C[C@]1(O)CC[C@H]2[C@@H]3CCC4=CC(=O)CCC4=C3C=C[C@@]21C [R1881, methyltrioenolone]				0.1 nM	1 nM	not regulated
